From ChEMBL document CHEMBL5303304, “EUbOPEN Chemogenomics Library - IncuCyte” (2023)

Experiments:
Type in all cases: toxicity, cell-based
Fibroblast = experiment: Incucyte cell viability with human fibroblast; settings: 10 µM, compound concentration 10 uM
U2OS = experiment: Incucyte cell viability with U2OS; settings: human, 10 µM, compound concentration 10 uM
HEK-293T = experiment: Incucyte cell viability with HEK293T; settings: human, 10 µM, compound concentration 10 uM
Further: unitless GR value; below 1 slowed growth and below 0 cell loss.

Row | Compound | Growth Rate (Fibroblast; 0 h, replicate number 1) | Growth Rate (Fibroblast; 6 h, replicate number 2) | Growth Rate (Fibroblast; 12 h, replicate number 1) | Growth Rate (Fibroblast; 12 h, replicate number 2) | Growth Rate (Fibroblast; 18 h, replicate number 1) | Growth Rate (Fibroblast; 18 h, replicate number 2) | Growth Rate (Fibroblast; 24 h, replicate number 1) | Growth Rate (Fibroblast; 24 h, replicate number 2) | Growth Rate (U2OS; 0 h, replicate number 1) | Growth Rate (U2OS; 0 h, replicate number 2) | Growth Rate (U2OS; 12 h, replicate number 1) | Growth Rate (U2OS; 12 h, replicate number 2) | Growth Rate (U2OS; 18 h, replicate number 2) | Growth Rate (HEK-293T; 0 h, replicate number 2) | Growth Rate (HEK-293T; 18 h, replicate number 1) | Growth Rate (HEK-293T; 24 h, replicate number 1) | Growth Rate (U2OS; 18 h, replicate number 1) | Growth Rate (U2OS; 24 h, replicate number 2) | Growth Rate (HEK-293T; 12 h, replicate number 1) | Growth Rate (HEK-293T; 6 h, replicate number 1) | further results
1 | COCCc1ccc(-c2c(C)nc3c(N4CCOCC4)ccnn23)cn1 [JNJ-42396302] | 0.07 | 0.78 | 0.86 | 0.81 | 0.88 | 0.84 | 0.86 | 0.91 | -0.6 | 0.07 | 0.98 | 0.93 | 0.99 | 0.44 | 0.91 | 0.86 | – | – | – | – | Growth Rate (U2OS; 6 h, replicate number 2): 0.56
2 | COc1nc2ccc([C@@](O)(c3ccccc3)C3CCN(C(C)=O)CC3)cc2c(Cl)c1Cc1ccc(-n2cccn2)cc1 [JNJ-54119936] | -1 | – | – | – | – | 0.98 | – | – | -1 | 0.93 | 0.93 | 0.72 | 0.7 | -1 | 0.37 | 0.25 | 0.84 | 0.64 | 0.65 | – | Growth Rate (U2OS; 6 h, replicate number 2): 0.45; Growth Rate (U2OS; 24 h, replicate number 1): 0.94; Growth Rate (HEK-293T; 0 h, replicate number 1): -0.96
3 | CC(=O)Nc1ncc(CN2CCC[C@H](Cc3cc(C)nc(C)c3)C2)s1 [JNJ-65355394] | -1 | 0.74 | 0.9 | 0.75 | – | 0.94 | – | – | -1 | – | – | 0.62 | 0.92 | -0.2 | – | 0.91 | 0.96 | 0.78 | 0.83 | 0.82 | Growth Rate (U2OS; 6 h, replicate number 1): -0.86
4 | CC(=O)Nc1nc(CN2CCC[C@H](Cc3cc(C)nc(C)c3)C2)cs1 [JNJ-73924149] | – | 0.73 | 0.89 | 0.74 | 0.87 | 0.72 | – | 0.79 | – | – | – | 0.87 | – | – | 0.81 | 0.82 | 0.89 | 0.91 | 0.71 | 0.52 | Growth Rate (Fibroblast; 6 h, replicate number 1): 0.58; Growth Rate (HEK-293T; 6 h, replicate number 2): 0.53; Growth Rate (HEK-293T; 18 h, replicate number 2): 0.95; Growth Rate (HEK-293T; 24 h, replicate number 2): 0.95
5 | NCCCNCCCCNCCC(=O)NCCCCCNC(=O)[C@H](CC(N)=O)NC(=O)Cc1ccc(O)cc1O [JORO SPIDER TOXIN 3] | 0.16 | – | – | – | 0.85 | – | 0.49 | – | – | -0.97 | – | – | – | -1 | – | – | – | – | – | – | Growth Rate (Fibroblast; 0 h, replicate number 2): -1; Growth Rate (HEK-293T; 0 h, replicate number 1): -0.96
6 | N#CN1CC[C@@H](C(=O)Nc2nc3c(s2)CN(C(=O)CN=[N+]=[N-])CC3)C1 [JYQ88] | -1 | 0.78 | 0.78 | 0.49 | – | 0.75 | 1 | 0.77 | -1 | – | 0.95 | – | – | – | 1 | 0.96 | – | – | 0.77 | 0.69 | Growth Rate (HEK-293T; 0 h, replicate number 1): 0.97; Growth Rate (HEK-293T; 6 h, replicate number 2): 0.71; Growth Rate (HEK-293T; 12 h, replicate number 2): 0.7; Growth Rate (HEK-293T; 18 h, replicate number 2): 0.77; Growth Rate (HEK-293T; 24 h, replicate number 2): 0.85
7 | C=C(C)[C@H]1CN[C@H](C(=O)O)[C@H]1CC(=O)O [KAINIC ACID] | -0.12 | 0.16 | – | 0.83 | 0.63 | 0.79 | 0.76 | 0.8 | – | -0.65 | – | – | 0.9 | – | 0.62 | 0.8 | – | – | 0.52 | 0.6 | Growth Rate (Fibroblast; 0 h, replicate number 2): 0.92; Growth Rate (Fibroblast; 6 h, replicate number 1): 0.61; Growth Rate (U2OS; 6 h, replicate number 1): 0.42; Growth Rate (U2OS; 24 h, replicate number 1): 0.98; Growth Rate (HEK-293T; 18 h, replicate number 2): 0.99
